Experimental data reported in paper PMC11995211, “Design, Synthesis, and Evaluation of a New Fluorescent Ligand for the M2 Muscarinic Acetylcholine Receptor” (ACS Medicinal Chemistry Letters, 2025).

Key:
[1] = biological target: T1, hM1R (Homo sapiens, UniProt P11229); test: Radioligand competition binding, [3H]-scopolamine (N-methyl), CHO cell membranes, hM1R; settings: 10 μM compound; radioligand binding; read-out: inhibition at 10 μM (M1)
T1 construct: expressed in transfected cells; host or cells: CHO cell membranes
T1 sequence (P11229 1-460): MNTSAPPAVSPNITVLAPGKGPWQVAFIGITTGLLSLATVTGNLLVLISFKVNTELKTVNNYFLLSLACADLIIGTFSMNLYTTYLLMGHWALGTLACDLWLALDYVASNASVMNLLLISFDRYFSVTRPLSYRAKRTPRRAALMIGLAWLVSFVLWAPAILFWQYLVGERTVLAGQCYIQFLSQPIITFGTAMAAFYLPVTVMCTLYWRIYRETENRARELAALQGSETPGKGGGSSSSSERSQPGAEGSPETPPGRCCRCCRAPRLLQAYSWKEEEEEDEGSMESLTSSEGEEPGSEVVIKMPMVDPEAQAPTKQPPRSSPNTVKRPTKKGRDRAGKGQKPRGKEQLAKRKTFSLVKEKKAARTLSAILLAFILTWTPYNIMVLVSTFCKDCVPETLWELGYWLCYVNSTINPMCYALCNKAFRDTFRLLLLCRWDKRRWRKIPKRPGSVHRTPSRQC

[2] = biological target: T2, hM5R (Homo sapiens, UniProt P08912); test: Radioligand competition binding, [3H]-scopolamine (N-methyl), CHO cell membranes, hM5R; settings: mean ± SD, n = 3; membranes from CHO cells transfected with hM5R; read-out: Receptor Ki M5
T2 construct: expressed in transfected cells; host or cells: CHO cell membranes
T2 sequence (P08912 1-532): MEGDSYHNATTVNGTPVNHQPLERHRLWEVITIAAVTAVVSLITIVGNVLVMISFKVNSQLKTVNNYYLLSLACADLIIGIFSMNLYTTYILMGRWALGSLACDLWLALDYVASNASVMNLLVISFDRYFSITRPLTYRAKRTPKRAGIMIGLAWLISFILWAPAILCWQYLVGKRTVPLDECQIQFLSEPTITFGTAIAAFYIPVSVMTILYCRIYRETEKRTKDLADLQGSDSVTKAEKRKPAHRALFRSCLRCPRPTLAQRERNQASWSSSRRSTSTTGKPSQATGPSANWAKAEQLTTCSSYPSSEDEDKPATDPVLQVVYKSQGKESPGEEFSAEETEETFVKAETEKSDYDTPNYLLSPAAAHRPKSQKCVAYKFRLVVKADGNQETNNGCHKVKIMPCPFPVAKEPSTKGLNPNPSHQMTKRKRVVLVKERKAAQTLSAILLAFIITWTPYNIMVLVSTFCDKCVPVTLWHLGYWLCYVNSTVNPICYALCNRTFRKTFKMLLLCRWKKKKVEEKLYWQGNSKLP

[3] = biological target: T3, M2R (Homo sapiens, UniProt P08172); test: BRET-based TRUPATH GoA activation assay, antagonism of carbachol-induced G protein activation; type: cell-based
T3 sequence (P08172 1-466): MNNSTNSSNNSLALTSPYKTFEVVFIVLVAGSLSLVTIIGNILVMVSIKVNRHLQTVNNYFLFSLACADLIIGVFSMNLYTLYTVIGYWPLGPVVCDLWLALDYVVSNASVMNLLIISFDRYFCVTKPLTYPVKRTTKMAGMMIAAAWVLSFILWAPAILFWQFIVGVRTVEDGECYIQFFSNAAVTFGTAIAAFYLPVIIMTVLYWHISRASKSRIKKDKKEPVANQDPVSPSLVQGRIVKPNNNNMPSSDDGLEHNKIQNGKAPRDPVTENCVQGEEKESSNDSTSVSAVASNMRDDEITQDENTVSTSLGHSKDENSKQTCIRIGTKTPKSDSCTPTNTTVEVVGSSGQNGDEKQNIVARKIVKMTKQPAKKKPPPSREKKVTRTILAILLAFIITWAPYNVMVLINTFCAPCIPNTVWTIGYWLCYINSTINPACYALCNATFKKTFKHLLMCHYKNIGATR

[4] = biological target: T4, HA–M2R (Homo sapiens, UniProt P08172); test: STED nanoscopy labeling of living HEK 293T cells; type: cell-based; settings: 300 nM
T4 sequence (P08172 1-466): T3 sequence (P08172 1-466)
From the text: As STED microscopy is used for the deeper investigation of cellular processes even at the subcellular level, we challenged the fluorescent probe 33 in STED nanoscopy (Figure ). For STED, we used the same transfected cells as in the case of two-photon microscopy. Using the STED function and the available largest magnification objective, we observed improvement of optical resolution.
Figure S7. […] Scale bar:
20 μm. Representative images of two independent experiments are shown.
Figure S8. […] Scale bar:
50 μm. Representative images of two independent experiments are shown.
Confocal and STED microscopy
Confocal and STED images were acquired using a Leica TCS SP8 STED 3× inverse […]
well IBIDI chamber slides. The samples were scanned with a Leica HC PL Fluotar 20x/0.55 objective and a PMT detector. A 488 nm laser was used for the excitation of the fluorescent dye OG488 for the confocal imaging, and the spectral detection parameters were 500-550 nm.
(1 picture or pasted object on this page, not shown here)
Simultaneous transmission light imaging was used to detect the cells. For STED imaging, we used the same excitation laser and a Leica HC PL APO 100×/1.40 oil immersion objective and a Leica HyD detector, which was completed with a 660 nm STED (1.5 W, continuous wave) laser for depletion (at 1.17–2.48 × 109 W mm−2 nominal intensity with an output laser power of 1.2 W/32 nm × 32 nm pixel size). […]

inhibition at 10 µM [1]: 38%
Ki [2]: 182 ± 23 nM
mode of antagonism of carbachol-induced G protein activation ([3]; TRUPATH GoA assay): competitive antagonists
Log(IC50) ± SD (M), carbachol-induced GoA protein activation ([3]; log10 of IC50 (negative values), HEK 293T, compound 20 min, then 10 μM carbachol 15 min, Hill-slope = 1, n = 3): –7.39 ± 0.09 M
signal location in HA–M2R-expressing cells ([4]; living HEK 293T): concentrated in the membranes of cells
fluorescence in control (M2R-negative) cells ([4]; non-transfected HEK 293T): fluorescence is lacking
SMILES: O=C(CCOCCOCCNC(=O)c1ccc(-c2c3cc(F)c(=O)cc-3oc3cc(O)c(F)cc23)c(C(=O)O)c1)NCCOCCOCCNc1ccccc1C(=O)N1CCC(N2CCC(Cc3ccc(S(=O)(=O)c4cccc(Cl)c4)cc3)CC2)CC1 [Compound 33]
